Results from patent US11512107B2, “Methods for assembly of tetracyclic compounds by stereoselective C9-C10 bond formation” (Trustees of Dartmouth College, priority 2018, dated 2022).

Columns and labels:
[1] = tested on: ERβ; assay: Alkaline phosphatase (ALP) activity in DU-145 prostate cancer cells expressing endogenous ERβ; assay type: cell-based, human; details: DU-145 cells, 24 hours, 5 μM
Procedure: FIG. 2 is a bar graph showing alkaline phosphatase activity in human DU-145 prostate cancer cells (17β-estradiol, Compound 100, and Compound 101 were evaluated at 5 μM).
The DU-145 prostate cancer cell line only expresses ERβ and can be used as a model to examine the activation of ERβ in the absence of any potential confounding signal driven by ERα. Alkaline phosphatase (ALP) expression is induced in an ER-dependent manner and has been used to characterize the activity of synthetic ER agonists and antagonists.
In order to examine the ability of Compound 100 and Compound 101 to activate ERβ in the context of a cell line expressing endogenous ERβ, DU-145 cells were treated for 24 hours with either 17β-estradiol, Compound 100, or Compound 101 and ALP activity derived from the cells was examined.

[2] = target: ERβ (Homo sapiens, UniProt Q92731); assay: ERβ agonist assay (functional activity at estrogen receptors, FIG. 1); assay type: cell-based; details: for selectivity over ERα: ERβ over ERα, relative to 17β-estradiol; for EC50: read-out: EC50 ERβ agonism
Procedure: FIG. 1 is a set of line graphs showing the results of ERβ and ERα agonist assays for Compounds 100 and 101.
Compounds 100 and 101 were evaluated for their functional activity at estrogen receptors (both ERα and ERβ). 17β-estradiol was used as a control, as it is appreciated to be a potent agonist of both ERα and ERβ.

[3] = tested on: U251 and U87 cells; assay: Growth inhibition and viable cell counts of glioblastoma-derived cell lines; assay type: cell-based, human; details: U251 and U87, after 24 hours, versus TMZ
Procedure: FIG. 3A-3B are line graphs depicting (A) dose dependent growth inhibition of U251 and U87 cells treated with Compound 100, Compound 101, TMZ, and vehicle control DMSO (n=4) and (B) viable cell counts of U251 and U87 cells treated with Compound 100, Compound 101, TMZ, and vehicle control DMSO determined every 24 hours for 96 hours (n=4)
To determine the biological effect of Compound 100 and Compound 101, human glioblastoma-derived cell lines U251 and U87 were treated with varying concentrations of Compound 100, Compound 101, temazolomide (TMZ; a standard of care chemotherapeutic agent), or vehicle-toxicity control, dimethylsulfoxide (DMSO) used at final volumes that were identical to those used to attain all concentrations tested of Compound 100 and Compound 101.

[4] = tested on: U251 and U87 cells; assay: Apoptosis by Annexin V / 7-AAD FACS analysis; assay type: cell-based, human; details: U251 and U87, 24 hours
Procedure: FIG. 3C is a flow cytometric analysis of U251 and U87 co-stained with Annexin V-FITC/7-AAD after treatment with Compound 100, Compound 101, TMZ, and vehicle control DMSO (n=4).
In order to elucidate the mechanism of this cell death, glioblastoma cells treated for 24 hours with Compound 100, Compound 101, TMZ, or DMSO control were analyzed for early and late apoptosis markers (Annexin V and 7-Aminoactinomycin D) by FACS analyses. […] Additionally, over a period of five days, morphological changes in U251 and U87 cells treated with Compound 100 and Compound 101 were tracked using the Incucyte live cell imaging system.

[5] = tested on: human neural stem cells as well as human astrocytes; assay: Cell viability of non-tumour neural cells; assay type: cell-based; details: at the equivalent concentration
[6] = Initial in vivo toxicity studies
Source text: In comparison to 17β-estradiol, Compound 100 and Compound 101 have a unique profile for selective agonism of ERβ (FIG. 1).

Chain of ERβ (Homo sapiens, UniProt Q92731) (Q92731 whole entry): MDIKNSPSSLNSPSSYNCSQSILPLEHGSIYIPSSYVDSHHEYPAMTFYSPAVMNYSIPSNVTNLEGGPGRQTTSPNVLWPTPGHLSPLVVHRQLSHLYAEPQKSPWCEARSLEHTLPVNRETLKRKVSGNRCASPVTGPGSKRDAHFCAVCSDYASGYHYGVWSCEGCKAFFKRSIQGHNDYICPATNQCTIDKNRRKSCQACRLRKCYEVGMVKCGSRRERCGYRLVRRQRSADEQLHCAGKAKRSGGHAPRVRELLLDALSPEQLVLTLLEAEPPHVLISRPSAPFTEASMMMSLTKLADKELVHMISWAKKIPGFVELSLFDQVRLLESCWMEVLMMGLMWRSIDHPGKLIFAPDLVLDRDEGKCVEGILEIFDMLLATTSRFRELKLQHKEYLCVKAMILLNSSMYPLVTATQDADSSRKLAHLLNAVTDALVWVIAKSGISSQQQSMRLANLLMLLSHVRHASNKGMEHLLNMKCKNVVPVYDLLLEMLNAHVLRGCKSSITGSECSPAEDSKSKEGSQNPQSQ

selectivity over ERα [2] | EC50 [2] | inhibition of glioma cell growth (IC50): fold lower concentration compared to TMZ [3] | Compound | induction of ALP activity [1] | induction of apoptosis, fold higher than TMZ or DMSO controls [4] | cell viability of human neural stem cells and human astrocytes [5] | in vivo toxicity [6]
– | – | – | C[C@]12CC[C@@H]3c4ccc(O)cc4CC[C@H]3[C@@H]1CC[C@@H]2O [17β-estradiol] | effective in inducing ALP activity | – | – | –
> 260 fold | 0.05 nM | 50 fold | C[C@]12CC[C@@]3(C)C(=C1C[C@@H](O)C2)CCc1cc(O)ccc13 [Compound 100, (9S,13R,16S)-9,13-dimethyl-7,9,11,12,13,15,16,17-octahydro-6H-cyclopenta[a]phenanthrene-3,16-diol] | – | 7 fold | not affected | neither compound is toxic
~6 fold | 1.9 nM | 50 fold | C[C@@]12CC[C@]3(C)C(=C1C[C@H](O)C2)CCc1cc(O)ccc13 [Compound 101, (9R,13S,16R)-9,13-dimethyl-7,9,11,12,13,15,16,17-octahydro-6H-cyclopenta[a]phenanthrene-3,16-diol] | – | 7 fold | not affected | neither compound is toxic
